We go through 17 compounds from patent US9884821B2, “N1-cyclic amine-N5-substituted biguanide derivatives, methods of preparing the same and pharmaceutical composition comprising the same” (IMMUNOMET THERAPEUTICS INC., priority 2013, dated 2018).

In experiment [1] the test system is AMPK. Briefly: AMPK activation effect (AMPK [pT172] ELISA) in MCF7 cells. Particulars: 24 hours; for AMPK activation effect (%) 5 μM / AMPK activation effect (%) 10 μM / AMPK activation effect (%) 50 μM: AMPKα Thr172 phosphorylation relative to untreated cells; for AC150: concentration at which AMPK activation reached 150%. The format is cell-based, human. The procedure, abridged:
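MCF7 cells in DMEM/10% FBS were treated 24 h with compounds at 5, 10 and 50 uM. Lysates (20 μg protein) were assayed by ELISA for AMPKα Thr172 phosphorylation as the activation read-out.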
For orientation: ELISA stands for enzyme-linked immunosorbent assay.

The subject of experiment [2] is HCT116 cells. Put plainly: Effect of inhibiting cancer cell proliferation (MTT) in HCT116 cells. The following applies: Homo sapiens, HCT-116, 48 h; for inhibition at 25 µM: read-out: Cell growth inhibition (%) at 25 μM; for inhibition at 100 µM: read-out: Cell growth inhibition (%) at 100 μM. The format is cell-based, human. The method in brief: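 HCT116 colorectal cells (about 5,000 per well, DMEM with 10% FBS) treated with 100, 25, 6.25, 1.56 or 0.39 μM compound for 48 h. MTT added for 3 h, formazan read at 560 nm; GIC50 taken from viability relative to untreated cells.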

Counter-ions that a name gives are not always drawn.

For orientation: GI50 means the concentration that inhibits growth by half. Higher therefore signals less potent growth inhibition. For orientation: inhibition means the drop in the measured response relative to a control, in per cent. With `CC1CCCN(C(=N)NC(=N)Nc2ccc(OC(F)(F)F)c(F)c2)C1.Cl` (centres unmarked) [Example 75, N1-(3-methyl)piperidine-N5-(3-fluoro, 4-trifluoromethoxy)phenyl biguanide hydrochloride], in experiment [1], the “AMPK activation effect (%) 5 μM” value was 133%, the “AMPK activation effect (%) 10 μM” value is 259% and the AC150 was determined as 3.9 µM. In experiment [2], the GI50 was found to be 9.3 µM and the inhibition at 25 µM came out at 100%.

On to `CC1=CCN(C(=N)NC(=N)Nc2ccc(OC(F)(F)F)cc2)C1.Cl` [Example 15, N1-(3-methyl)-1,2-dihydropyrrole-N5-(4-trifluoromethoxy)phenyl biguanide hydrochloride], for which, in experiment [1], the “AMPK activation effect (%) 10 μM” value was 554% and the AC150 turned out to be 1.6 µM. For the same compound, in experiment [2], growth was halved (GI50) at 10.1 µM and the inhibition at 100 µM came to 99.2%.

For the compound `Cl.N=C(NC(=N)N1CC=CCC1)Nc1ccc(OC(F)(F)F)cc1` [Example 28, N1-1,2,3,6-tetrahydropyridine-N5-(4-trifluoromethoxy)phenyl biguanide hydrochloride], in experiment [1], the “AMPK activation effect (%) 10 μM” value is reported as 732% and the AC150 was found to be 0.15 µM. Moreover, in experiment [2], the GI50 came to 8.4 µM and the inhibition at 100 µM came to 100%.

In the case of `Cl.N=C(NC(=N)N1CC=CC1)Nc1ccc(C(F)(F)F)c(F)c1` [Example 47, N1-1,2-dihydropyrrole-N5-(3-fluoro, 4-trifluoromethyl)phenyl biguanide hydrochloride], in experiment [1], the “AMPK activation effect (%) 10 μM” value stood at 758% and the AC150 stood at 1.0 µM. Further, in experiment [2], halving of growth (GI50) required 10.8 µM and the inhibition at 100 µM is 100%.

Turning to `CC1CCCC(C)N1C(=N)NC(=N)Nc1ccc(F)c(C(F)(F)F)c1.Cl` (centres unmarked) [Example 93, N1-(2,6-dimethyl)piperidine-N5-(4-fluoro, 3-trifluoromethyl)phenyl biguanide hydrochloride], in experiment [1], the “AMPK activation effect (%) 5 μM” value is given as 190%, the “AMPK activation effect (%) 10 μM” value stood at 422% and the AC150 is 2.0 µM. In addition, in experiment [2], it took 3 µM to inhibit growth by half (GI50) and the inhibition at 25 µM stood at 100%.

`Cl.N=C(NCc1ccc(Cl)c(C(F)(F)F)c1)NC(=N)N1CC=CCC1` [Example 58, N1-1,2,3,6-tetrahydropyridine-N5-(4-chloro, 3-trifluoromethyl)benzyl biguanide hydrochloride]: in experiment [1], the “AMPK activation effect (%) 10 μM” value is listed as 500% and the AC150 worked out at 1.8 µM. Besides, in experiment [2], the 50% growth inhibitory concentration (GI50) is 7.9 µM and the inhibition at 100 µM was found to be 98.4%.

As to `Cc1ccc(NC(=N)NC(=N)N2CC=CCC2)cc1.Cl` [Example 48, N1-1,2,3,6-tetrahydropyridine-N5-(4-methyl)phenyl biguanide hydrochloride], in experiment [1], the “AMPK activation effect (%) 10 μM” value is reported as 178%, the “AMPK activation effect (%) 50 μM” value turned out to be 691% and the AC150 came to 4.9 µM. Further, in experiment [2], it took 42.5 µM to inhibit growth by half (GI50) and the inhibition at 100 µM was found to be 97.6%.

As for `Cc1cccc(NC(=N)NC(=N)N2CC=CCC2)c1.Cl` [Example 49, N1-1,2,3,6-tetrahydropyridine-N5-(3-methyl)phenyl biguanide hydrochloride], in experiment [1], the “AMPK activation effect (%) 10 μM” value was determined as 319%, the “AMPK activation effect (%) 50 μM” value was 917% and the AC150 is 1.9 µM. For the same compound, in experiment [2], the GI50 turned out to be 57 µM and the inhibition at 100 µM is 91.8%.

Turning to `CC1CCCN(C(=N)NC(=N)Nc2ccc(Br)cc2)C1.Cl` (centres unmarked) [Example 68, N1-(3-methyl)piperidine-N5-(4-bromo)phenyl biguanide hydrochloride], in experiment [1], the “AMPK activation effect (%) 5 μM” value came to 52%, the “AMPK activation effect (%) 10 μM” value came to 136% and the AC150 was 13.7 µM. In experiment [2], halving of growth (GI50) required 45.3 µM and the inhibition at 25 µM stood at 29.4%.

Take `Cl.N=C(NCc1ccc(OC(F)(F)F)cc1)NC(=N)N1CC=CCC1` [Example 54, N1-1,2,3,6-tetrahydropyridine-N5-(4-trifluoromethoxy)benzyl biguanide hydrochloride]: in experiment [1], the “AMPK activation effect (%) 10 μM” value was found to be 545%, the “AMPK activation effect (%) 50 μM” value is reported as 650% and the AC150 came to 0.87 µM. Moreover, in experiment [2], halving of growth (GI50) required 14.6 µM and the inhibition at 100 µM amounted to 98.1%.

With `CC1CCCC(C)N1C(=N)NC(=N)Nc1ccc(Br)cc1` (centres unmarked) [Example 97, N1-(2,6-dimethyl)piperidine-N5-(4-bromo)phenyl biguanide hydrochloride], in experiment [1], the “AMPK activation effect (%) 5 μM” value is on record as 143%, the “AMPK activation effect (%) 10 μM” value came out at 233% and the AC150 was found to be 4.2 µM. In experiment [2], the GI50 is 9.1 µM and the inhibition at 25 µM was 100%.

`N=C(NC(=N)N1CC=CCC1)Nc1ccc(Br)cc1` [Example 36, N1-1,2,3,6-tetrahydropyridine-N5-(4-bromo)phenyl biguanide hydrochloride]: in experiment [1], the “AMPK activation effect (%) 10 μM” value was determined as 568% and the AC150 came to 0.87 µM. In experiment [2], growth was halved (GI50) at 11.2 µM and the inhibition at 100 µM was 99%.

In the case of `CC1CCCN(C(=N)NC(=N)Nc2ccc(Cl)c(C(F)(F)F)c2)C1.Cl` (centres unmarked) [Example 69, N1-(3-methyl)piperidine-N5-(4-chloro, 3-trifluoromethyl)phenyl biguanide hydrochloride], in experiment [1], the “AMPK activation effect (%) 5 μM” value amounted to 307%, the “AMPK activation effect (%) 10 μM” value came out at 650% and the AC150 was 1.2 µM. Also, in experiment [2], it took 1.9 µM to inhibit growth by half (GI50) and the inhibition at 25 µM was found to be 100%.

As to `CC1CCCC(C)N1C(=N)NC(=N)Nc1cccc(C(F)(F)F)c1.Cl` (centres unmarked) [Example 92, N1-(2,6-dimethyl)piperidine-N5-(3-trifluoromethyl)phenyl biguanide hydrochloride], in experiment [1], the “AMPK activation effect (%) 5 μM” value is given as 324%, the “AMPK activation effect (%) 10 μM” value came to 417% and the AC150 came to 0.8 µM. For the same compound, in experiment [2], the GI50 is 7.5 µM and the inhibition at 25 µM came to 100%.

As to `CC1CCCC(C)N1C(=N)NC(=N)Nc1cccc(OC(F)(F)F)c1.Cl` (centres unmarked) [Example 90, N1-(2,6-dimethyl)piperidine-N5-(3-trifluoromethoxy)phenyl biguanide hydrochloride], in experiment [1], the “AMPK activation effect (%) 5 μM” value is given as 281%, the “AMPK activation effect (%) 10 μM” value is 317% and the AC150 was determined as 0.8 µM. Further, in experiment [2], the concentration for 50% growth inhibition (GI50) was found to be 3.2 µM and the inhibition at 25 µM turned out to be 100%.

In the case of `CC1CCCC(C)N1C(=N)NC(=N)Nc1ccc(C(F)(F)F)cc1.Cl` (centres unmarked) [Example 91, N1-(2,6-dimethyl)piperidine-N5-(4-trifluoromethyl)phenyl biguanide hydrochloride], in experiment [1], the “AMPK activation effect (%) 5 μM” value came out at 108%, the “AMPK activation effect (%) 10 μM” value came out at 214% and the AC150 came to 5.6 µM. Further, in experiment [2], growth was halved (GI50) at 11.4 µM and the inhibition at 25 µM amounted to 100%.

`COc1cc(NC(=N)NC(=N)N2CC=CCC2)cc(OC)c1.Cl` [Example 38, N1-1,2,3,6-tetrahydropyridine-N5-(3,5-dimethoxy)phenyl biguanide hydrochloride]: in experiment [1], the “AMPK activation effect (%) 10 μM” value was 97%, the “AMPK activation effect (%) 50 μM” value is listed as 117% and the AC150 is more than 50 µM. Also, in experiment [2], it took 108 µM to inhibit growth by half (GI50) and the inhibition at 100 µM was 47.8%.
